Among the data in US7880002B2, “Substituted piperazinyl-pyrrolidine compounds useful as chemokine receptor antagonists” (Millennium Pharmaceuticals, Inc., priority 2004, dated 2011) are IC50 values, retold here.

The assay has as its target T1, CCR1 (Homo sapiens, UniProt P32246).
T1 construct: a monocytic derived cell line that endogenously expresses CCR1; host or cells: THP-1 cells
T1 sequence (P32246 1-355): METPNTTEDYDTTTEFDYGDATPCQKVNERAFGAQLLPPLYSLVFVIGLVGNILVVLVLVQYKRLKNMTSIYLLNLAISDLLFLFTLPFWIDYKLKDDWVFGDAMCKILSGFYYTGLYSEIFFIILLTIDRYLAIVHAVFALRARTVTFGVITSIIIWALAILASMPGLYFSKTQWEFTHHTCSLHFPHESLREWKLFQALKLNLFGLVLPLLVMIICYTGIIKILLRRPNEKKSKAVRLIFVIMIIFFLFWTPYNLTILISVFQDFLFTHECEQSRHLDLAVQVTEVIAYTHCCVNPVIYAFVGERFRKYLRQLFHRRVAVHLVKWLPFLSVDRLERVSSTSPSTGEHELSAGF
In words: CCR1 inhibition (THP-1 FLIPR assay / THP-1 whole cell radioligand binding assay; the patent does not say which gave the values). The format is cell-based. Particulars: threshold list, less than 100 nm; compounds of Table 1; read-out: inhibitory activity. The protocol: The primary screening assay is a FLIPR® (Fluorometric Imaging Plate Reader, available from Molecular Devices Corporation, Sunnyvale, Calif.) assay using THP-1 cells (ATCC, Catalog No. TIB 202), a monocytic derived cell line that endogenously expresses CCR1.
The cells were resuspended at 1×10^6 cells/ml in dye loading media (growth media (RPMI+10% FBS (Fetal Bovine serum)+5.5×10^−5M 2-mercaptoethanol)+10 mM HEPES (N-2-hydroxyethylpiperazine-N′-2-ethane-sulfonic acid)+2.5 mM probenecid+fluo-3 (1:250)). The cells were incubated for 1 hour at 37° C. and then washed in FLIPR wash buffer (100 mL 10× HBSS (Hanks Buffered Saline Solution) (w/Ca++/Mg++)+20 mL 1M HEPES+1 g BSA+10 mL 250 mM probenecid+water (to make 1 L)) and plated at 50,000 cells/well in black/clear 384 well plates. The plates were transferred to FLIPR where the ability of different concentrations of compounds to inhibit RANTES induced calcium flux was assessed. Inhibition of the CCR1 response was reflected by a decrease of the fluorescence signal relative to the positive controls (RANTES alone).
THP-1 Whole Cell Radioligand Binding Assay
The cells were washed with PBS (phosphate buffered saline) and resuspended in binding buffer (10 mM HEPES pH 7.2, 1× HBSS (w/Ca^2+, Mg^2+) 0.5% BSA, 0.02% Na-azide) at 4×10^6 cells/ml (for 200, 000 cells/well). Cells were incubated with 0.1 to 0.2 nM [^125I]-labeled MIP-1α with or without unlabeled competitor (MIP-1α) or various concentrations of compounds for 60 minutes at room temperature. The assay was terminated by vacuum filtration through glass fiber filters (GF/B, Packard) which were presoaked in 0.3% polyethyleneimine. The filters were washed with wash buffer (10 mM HEPES, pH 7.2, 1 mM CaCl2, 5 mM MgCl2 0.5M NaCl), dried and the amount of bound radioactivity was determined by scintillation counting.

Structures are written as SMILES. Some results are limits rather than exact numbers.

As to `O=C(c1ccc(Cl)cc1)N1CCN([C@@H]2CN(c3nc(C(F)(F)F)nc4ccc(N5CCNC5=O)cc34)C[C@H]2O)CC1` (stereo in doubt) [Example 202, 1-[4-{3-[4-(4-chlorobenzoyl)piperazin-1-yl]-4-hydroxypyrrolidin-1-yl}-2-(trifluoromethyl)quinazolin-6-yl]imidazolidin-2-one], the IC50 is under 100 nM.

For `O[C@@H]1CN(c2nc(C(F)(F)F)cc(C(F)(F)F)n2)C[C@H]1N1CCN(Cc2ccc(Cl)cc2)CC1` [Example 110, 1-[4,6-bis(trifluoromethyl)pyrimidin-2-yl]-4-[4-(4-chlorobenzyl)piperazin-1-yl]pyrrolidin3-ol], the IC50 is under 100 nM. For `Cc1cc(N2C[C@@H](O)[C@H](N3CCN(C(=O)c4ccc(Cl)cc4)CC3)C2)nc(C(F)(F)F)n1` (stereo in doubt) [Example 146, 4-[4-(4-chlorobenzoyl)piperazin-1-yl]-1-[6-methyl-2-(trifluoromethyl)pyrimidin-4-yl]pyrrolidin-3-ol], the IC50 is under 100 nM. The figure for `N#Cc1ccc2nc(C(F)(F)F)nc(N3C[C@@H](O)[C@H](N4CCN(C(=O)c5ccc(Cl)cc5)CC4)C3)c2c1` (stereo in doubt) [Example 203, 4-{3-[4-(4-chlorobenzoyl)piperazin-1-yl]-4-hydroxypyrrolidin-1-yl}-2-(trifluoromethyl)quinazoline-6-carbonitrile] is under 100 nM. With `O=C(c1ccc(Cl)cc1)N1CCN([C@@H]2CN(c3nc(C(F)(F)F)nc4cnccc34)C[C@H]2O)CC1` (racemic) [Example 137, 4-[4-(4-chlorobenzoyl)piperazin-1-yl]-1-[2-(trifluoromethyl)pyrido[3,4-d]pyrimidin-4-yl]pyrrolidin-3-ol], the IC50 was under 100 nM. With `O=C(c1ccc(Cl)cc1)N1CCN([C@H]2CN(c3nc(C(F)(F)F)nc4cccc(Cl)c34)C[C@@H]2O)CC1` (stereo in doubt) [Example 176, 4-[4-(4-chlorobenzoyl)piperazin-1-yl]-1-[5-chloro-2-(trifluoromethyl)quinazolin-4-yl]pyrrolidin-3-ol], the IC50 is under 100 nM. With `O=C(c1ccc(Cl)cc1)N1CCN([C@H]2CN(c3cc(C(F)(F)F)nc4c(C(F)(F)F)cccc34)C[C@@H]2O)CC1` (stereo in doubt) [Example 26, 1-[2,8-bis(trifluoromethyl)quinolin-4-yl]-4-[4-(4-chlorobenzoyl)piperazin-1-yl]pyrrolidin-3-ol], the IC50 was under 100 nM. As for `O[C@H]1CN(c2nc(C(F)(F)F)nc3ccccc23)C[C@@H]1N1CCN(Cc2ccc(Cl)cc2)CC1` (stereo in doubt) [Example 95, 4-[4-(4-chlorobenzyl)piperazin-1-yl]-1-[2-(trifluoromethyl)quinazolin-4-yl]pyrrolidin-3-ol], the IC50 was under 100 nM.

`O=C(c1ccc(Cl)cc1)N1CCN([C@@H]2CN(c3nc(C(F)(F)F)nc4ccc(-c5nn[nH]n5)cc34)C[C@H]2O)CC1` (stereo in doubt) [Example 204, 4-[4-(4-chlorobenzoyl)piperazin-1-yl]-1-[6-(2H-tetrazol-5-yl)-2-(trifluoromethyl)quinazolin-4-yl]pyrrolidin-3-ol]: the IC50 was under 100 nM. In the case of `COc1ccc2nc(C(F)(F)F)nc(N3C[C@H](O)[C@@H](N4CCN(C(=O)c5ccc(Cl)cc5)CC4)C3)c2c1` (stereo in doubt) [Example 165, 4-[4-(4-chlorobenzoyl)piperazin-1-yl]-1-[6-methoxy-2-(trifluoromethyl)quinazolin-4-yl]pyrrolidin-3-ol], the IC50 is under 100 nM. `CC(C)c1cc(C(F)(F)F)nc(N2C[C@@H](O)[C@H](N3CCN(C(=O)c4ccc(Cl)cc4)CC3)C2)n1` (stereo in doubt) [Example 123, 4-[4-(4-chlorobenzoyl)piperazin-1-yl]-1-[4-isopropyl-6-(trifluoromethyl)pyrimidin-2-yl]pyrrolidin-3-ol]: the IC50 was under 100 nM. The figure for `O=C(c1ccc(Cl)cc1)N1CCN([C@@H]2CN(c3nc(-c4ccccc4)nc4ccccc34)C[C@H]2O)CC1` [Example 101, 4-[4-(4-chlorobenzoyl)piperazin-1-yl]-1-(2-phenylquinazolin-4-yl)pyrrolidin-3-ol] is under 100 nM. For `O=C(c1ccc(Cl)cc1)N1CCN([C@H]2CN(c3ncnc4cnccc34)C[C@@H]2O)CC1` (racemic) [Example 182, 4-[4-(4-chlorobenzoyl)piperazin-1-yl]-1-pyrido[3,4-d]pyrimidin-4-ylpyrrolidin-3-ol], the IC50 is under 100 nM. Consider `CNC(=O)c1ccc2nc(C(F)(F)F)nc(N3C[C@@H](O)[C@H](N4CCN(C(=O)c5ccc(Cl)cc5)CC4)C3)c2c1` (stereo in doubt) [Example 198, 4-{3-[4-(4-chlorobenzoyl)piperazin-1-yl]-4-hydroxypyrrolidin-1-yl}-N-methyl-2-(trifluoromethyl)quinazoline-6-carboxamide], for which the IC50 was under 100 nM. Take `O=C(c1ccc(Cl)cc1)N1CCN([C@H]2CN(c3nc(C(F)(F)F)nc4cc(F)c(F)cc34)C[C@@H]2O)CC1` (stereo in doubt) [Example 179, 4-[4-(4-chlorobenzoyl)piperazin-1-yl]-1-[6,7-difluoro-2-(trifluoromethyl)quinazolin-4-yl]pyrrolidin-3-ol]: the IC50 is under 100 nM. The figure for `O=C(c1ccc(Cl)cc1)N1CCN([C@H]2CN(c3nc(C(F)(F)F)nc4cc(F)ccc34)C[C@@H]2O)CC1` (stereo in doubt) [Example 171, 4-[4-(4-chlorobenzoyl)piperazin-1-yl]-1-[7-fluoro-2-(trifluoromethyl)quinazolin-4-yl]pyrrolidin-3-ol] is under 100 nM; for `O=C(c1ccc(Cl)cc1)N1CCN([C@@H]2CN(c3nc(C(F)(F)F)nc4ccccc34)C[C@H]2O)CC1` (stereo in doubt) [Example 94, 4-[4-(4-chlorobenzoyl)piperazin-1-yl]-1-[2-(trifluoromethyl)quinazolin-4-yl]pyrrolidin-3-ol] it is under 100 nM. Turning to `O=C(c1ccc(Cl)cc1)N1CCN([C@@H]2CN(c3ncnc4cc(F)c(F)cc34)C[C@H]2O)CC1` (stereo in doubt) [Example 102, 4-[4-(4-chlorobenzoyl)piperazin-1-yl]-1-(6,7-difluoroquinazolin-4-yl)pyrrolidin-3-ol], the IC50 is under 100 nM. As to `COC(=O)c1ccc2nc(C(F)(F)F)nc(N3C[C@@H](O)[C@H](N4CCN(C(=O)c5ccc(Cl)cc5)CC4)C3)c2c1` (stereo in doubt) [Example 180, methyl 4-{3-[4-(4-chlorobenzoyl)piperazin-1-yl]-4-hydroxypyrrolidin-1-yl}-2-(trifluoromethyl)quinazoline-6-carboxylate], the IC50 was under 100 nM. As to `O=C(c1ccc(Cl)cc1)N1CCN([C@@H]2CN(c3ncnc4cc(Cl)c(F)cc34)C[C@H]2O)CC1` (stereo in doubt) [Example 161, 4-[4-(4-chlorobenzoyl)piperazin-1-yl]-1-(7-chloro-6-fluoroquinazolin-4-yl)pyrrolidin-3-ol], the IC50 was under 100 nM. On to `O=C(c1ccc(Cl)cc1)N1CCN([C@@H]2CN(c3ncnc4ccc(Cl)cc34)C[C@H]2O)CC1` (stereo in doubt) [Example 81, 4-[4-(4-chlorobenzoyl)piperazin-1-yl]-1-(6-chloroquinazolin-4-yl)pyrrolidin-3-ol], for which the IC50 is under 100 nM. The figure for `CCOc1ccc2nc(C(F)(F)F)nc(N3C[C@H](O)[C@@H](N4CCN(C(=O)c5ccc(Cl)cc5)CC4)C3)c2c1` (stereo in doubt) [Example 184, 4-[4-(4-chlorobenzoyl)piperazin-1-yl]-1-[6-ethoxy-2-(trifluoromethyl)quinazolin-4-yl]pyrrolidin-3-ol] is under 100 nM; for `O=C(c1ccc(Cl)cc1)N1CCN([C@H]2CN(c3nc(C(F)(F)F)nc4ccc([N+](=O)[O-])cc34)C[C@@H]2O)CC1` (stereo in doubt) [Example 188, 4-[4-(4-chlorobenzoyl)piperazin-1-yl]-1-[6-nitro-2-(trifluoromethyl)quinazolin-4-yl]pyrrolidin-3-ol] it is under 100 nM; for `O=C(c1ccc(Cl)cc1)N1CCN([C@H]2CN(c3ncnc4cc(Cl)ccc34)C[C@@H]2O)CC1` [Example 105, (3S,4S)-4-[4-(4-chlorobenzoyl)piperazin-1-yl]-1-(7-chloroquinazolin-4-yl)pyrrolidin-3-ol] it is under 100 nM.
